In patent publication US10907212B2, “Inhibitors of cell adhesion” (Regents of the University of Minnesota, priority 2016, dated 2021):
Entries after “also recorded” stand apart in the source; their conditions may differ. Where no end group is shown, it is not given here.

Tests used:
[1] = test system: nectin 4 protein on NIH:OVCAR-5 cells; test: Effect of peptides on anti-Nectin-4 antibody binding to cells as determined by flow cytometry; type: cell-based, human; conditions: for IgG MFI: IgG control primary antibody; for nectin-4 antibody binding compared to untreated control cells (in words): flow cytometry; for Flow binding: summary table, Nectin-4 antibody binding relative to control = 100
Description: Confluent monolayers of cells were detached from 75 cm^2 tissue culture flasks using Accutase cell dissociation buffer (Innovative Cell Technologies, San Diego, Calif.), washed, and labeled with mouse IgG or mAbs against Nectin-4 or Nectin-1 (2.5 μg/10^6 cells) in Flow Buffer [phosphate buffered saline (PBS) containing 2.5% newborn calf serum and 0.02% sodium azide] for 30 min at 4° C.. Cells were washed and incubated with goat anti-mouse IgG F(ab′)2 (Jackson ImmunoResearch, West Grove, Pa.), then washed again and incubated with streptavidin-allophycocyanin conjugate (Jackson ImmunoResearch, West Grove, Pa.) for 30 min each. Cells were washed and fixed in Flow Buffer containing 1% formaldehyde and analyzed in the University of Minnesota Flow Cytometry Resource with a BD Accuri™ C6 flow cytometer (BD Biosciences, San Jose, Calif.) using the Accuri™ software.
Briefly, NIH:OVCAR-5 cells that natively express a moderate amount of nectin 4 protein were incubated for 30 minutes in 150 μg/mL of soluble peptide in DMSO. After incubation, the cells were washed, and then triple antibody stained using mouse anti-nectin 4 (or IgG control) primary antibody, biotinylated goat anti-mouse secondary antibody, and streptavidin APC tertiary antibody. Finally, utilizing the University of Minnesota flow core's Accuri C6 flow cytometer, the relative antibody binding affinity for control and peptide-treated samples was quantitated and compared. Data was collected for each of the 57 peptides generated.

[2] = test system: adhesion of NIH:OVCAR5-N4-over cells to recombinant human Nectin-1 extracellular domain; test: Inhibition of NIH:OVCAR5-N4-over cell adhesion to recombinant Nectin-1 by synthetic nectin peptides; type: cell-based; conditions: 150 μg/ml peptide; 0.5 μg/well Nectin-1; 30 min adhesion; listed as N1-P20
Description: Black, clear-bottom 96-well microtiter plates (Corning, Imported Costar, Corning, N.Y.) were coated with recombinant human Nectin-1 extracellular domain (R&D Systems), recombinant human Nectin-4 extracellular domain (R&D Systems), mouse laminin (Invitrogen™), or bovine serum albumin (BSA; Probumin Diagnostic Grade, MilliPore) diluted in PBS. Covered plates were incubated overnight at 37° C. in a humidified incubator. After washing with PBS plus Ca^2+/Mg^2+ containing 2 mg/ml ovalbumin (Sigma-Aldrich), the plates were blocked for 1 hat 37° C. with 1% BSA in PBS without Ca^2+/Mg^2+. Confluent monolayers of NIH:OVCAR5 cells or NIH:OVCAR5-N4-over cells were detached with Accutase, and then filtered through a 40 μm cell strainer (BD Biosciences, San Jose, Calif.) to remove cell aggregates. The single cells were stained with CellTracker Green CMFDA (5-chloromethylfluorescein diacetate; Invitrogen™) according to the manufacturer's protocol. […] Plates were vigorously washed four times and read in a BioTek Synergy fluorescent microplate reader (BioTek, Winooski, V A). […]
Microtiter plates coated with recombinant Nectin-1 as described above were pre-incubated for 30 min at room temperature with 150 μg/ml Nectin-4 peptides in PBS in triplicate. CMFDA-stained NIH:OVCAR5-N4-over cells were then added to the wells and cell adhesion was quantified as described above. […]

[3] = test system: NIH:OVCAR5 control shRNA and NIH:OVCAR5-VB3 cells; test: Spheroid formation of cells pretreated with mitomycin C; type: cell-based, human; conditions: data not shown
Description: (§1) Spheroids were formed from the NIH:OVCAR5 cell lines described above using the liquid overlay method. One milliliter of a single cell suspension was seeded at a concentration of 50,000 cells/ml in OptiMEM® media, into 24-well tissue culture plates coated with 0.5% Seakem agarose (in complete RPMI-1640). Plates were incubated at 37° C. in a humidified incubator with 5% CO2. At various time points up to 5 days, the plates were removed from the incubator and the spheroids were photographed with a Nikon CoolPix digital camera mounted on an Olympus CK2 inverted microscope with a 4× objective. The size of the spheroids was determined using the measure tool in Adobe Photoshop. The largest spheroids were quantified (20-90 spheroids/well), in a minimum of 8 wells, for a total of >300 spheroids per cell type.
Ovarian cancer is unique in that tumor cells commonly grow within the peritoneal cavity as free floating multi-cellular aggregates (spheroids) in the ascites fluid. […] Spheroids formed by both cell types appeared tightly aggregated, in contrast to previous results with the cell adhesion molecule claudin-4, where cells depleted of claudin-4 formed spheroids more slowly and the spheroids formed had increased paracellular permeability. […]

[4] = test system: ovarian cancer cell aggregation and spheroid formation; test: Spheroid assay for peptides (visual scale +1 to +5); type: cell-based, human; conditions: for Spheroid-24: 24 hrs, Control = 2; for Spheroid-24 / Spheroid-48: visual scale of +1 to +5; for Spheroid-48: 48 hrs, Control = 4
Description: as §1
The clinical relevance is that by blocking the formation of spheroids, the cells will be more sensitive to chemotherapy (which targets the single cells that proliferate more rapidly than spheroids).
The spheroid assay for peptides 1-30 were scored using a visual scale of +1 to +5. The controls were scored at +2 (24 hrs) and +4 (48 hrs). […] It may be harder to visually assess the size at 24 hours, since the spheroids are relatively small, but and perhaps some of the peptides are affecting cell division, and that is why the spheroids are smaller than the controls at 48 hours, but not 24 hrs (this can be easily assayed with an MTT assay).

[5] = Run Four, Control 4 = 9.387504873
[6] = Run Four, antibody binding relative to Control 4 = 100
[7] = Run Two, 150 μg/mL peptide, 30 minutes, Control 2 = 49,491
[8] = Run Two, antibody binding relative to Control 2 = 100.00
[9] = Run One, 150 μg/mL peptide, 30 minutes, Control 1 = 15,015
[10] = Run One, 150 μg/mL peptide, 30 minutes, Control 1 = 1,670
[11] = Run One, antibody binding relative to Control 1 = 100.00

Compound: NWYLQRMDVKLTCK-NH2 (listed as Homo sapiens) [Peptide 49]
- N4 MFI/IgG MFI [1, 5]: 10.36
- IgG MFI ([1]; Run Four, Control 4 = 1,026): 29486
- nectin-4 antibody binding, percent of control [1, 6]: 3206
- nectin-4 antibody binding compared to untreated control cells (in words) ([1]; 150 μg/mL peptide): erroneous/outlier
- effect on cell adhesion to Nectin-1 (in words) [2]: to a greater extent than the mAb against Nectin-1; also recorded: complete inhibition

Compound: CO[C@@]12[C@H](COC(N)=O)C3=C(C(=O)C(C)=C(N)C3=O)N1C[C@@H]1N[C@@H]12 [mitomycin C]
- aggregation of cells in presence of mitomycin C ([3]; NIH:OVCAR5-VB3 cells with Nectin-4 knocked down by shRNA): No difference was observed
- spheroid size versus untreated control cells ([3]; shRNA control NIH:OVCAR5 cells, after 24 h): smaller than the untreated control cells

Compound: VDVLDPQEDSGKQV-NH2 (listed as Homo sapiens) [Peptide 26]
- N4 MFI [1, 7]: 35,299
- N4 MFI/IgG MFI ([1]; Run Two, Control 2 = 9.46): 8.92
- IgG MFI ([1]; Run Two, Control 2 = 5,233): 3,956
- nectin-4 antibody binding, percent of control [1, 8]: 70.82
- Spheroid-24 [4]: 1
- Spheroid-48 [4]: 2

Compound: EAQNRTLFFKGPINY-NH2 (listed as Homo sapiens) [Peptide 52]
- N4 MFI ([1]; Run Five, 150 μg/mL peptide, 30 minutes, Control 5 = 17,768.90): 20,692.13
- N4 MFI/IgG MFI ([1]; Run Five, Control 5 = 2.142155332): 2.717
- IgG MFI ([1]; Run Five, Control 5 = 8,294.87): 7,617.02
- nectin-4 antibody binding, percent of control ([1]; Run Five, antibody binding relative to Control 5 = 100): 138
- nectin-4 antibody binding compared to untreated control cells (in words) ([1]; 150 μg/mL peptide): increased nectin-4 antibody
- Flow binding [1]: 138%
- Spheroid-24 [4]: 1
- Spheroid-48 [4]: 2

Compound: HSRSAAVTSEFHLV-NH2 (listed as Homo sapiens) [Peptide 15]
- N4 MFI [1, 9]: 7,980
- IgG MFI [1, 10]: 2,158
- N4 MFI/IgG MFI ([1]; Run One, Control 1 = 8.99): 3.70
- nectin-4 antibody binding, percent of control [1, 11]: 43.63
- nectin-4 antibody binding compared to untreated control cells (in words) ([1]; 150 μg/mL peptide): reduction in nectin-4 antibody binding; also recorded: reduced antibody binding
- Flow binding [1]: 44%
- spheroid size (in words) [4]: reduced spheroid size
- Spheroid-24 [4]: 1
- Spheroid-48 [4]: 2

Compound: EVKGTTSSRSFKHS-NH2 (listed as Homo sapiens) [Peptide 14]
- N4 MFI [1, 9]: 13,217
- IgG MFI [1, 10]: 3,125
- N4 MFI/IgG MFI ([1]; Run One, Control 1 = 8.99): 4.23
- nectin-4 antibody binding, percent of control [1, 11]: 75.62
- Spheroid-24 [4]: 1
- Spheroid-48 [4]: 2

Compound: WTRLDGPLPSGVRVDGDT-NH2 (listed as Homo sapiens) [Peptide 28]
- N4 MFI [1, 7]: 41,302
- N4 MFI/IgG MFI ([1]; Run Two, Control 2 = 9.46): 10.83
- IgG MFI ([1]; Run Two, Control 2 = 5,233): 3,815
- nectin-4 antibody binding, percent of control [1, 8]: 84.70
- Spheroid-48 [4]: 2

Compound: ESLTLNVQYEPE-NH2 (listed as Homo sapiens) [Peptide 47]
- N4 MFI ([1]; Run Four, 150 μg/mL peptide, 30 minutes, Control 4 = 9,631.58): 11,949.18
- N4 MFI/IgG MFI [1, 5]: 6.679
- IgG MFI ([1]; Run Four, Control 4 = 1,026): 1789
- nectin-4 antibody binding, percent of control [1, 6]: 118.1
- Spheroid-24 [4]: 1
- Spheroid-48 [4]: 2

Compound: LWHIGREGAMLKCL-NH2 (listed as Homo sapiens) [Peptide 20]
- N4 MFI [1, 9]: 17,636
- IgG MFI [1, 10]: 1,890
- N4 MFI/IgG MFI ([1]; Run One, Control 1 = 8.99): 9.33
- nectin-4 antibody binding, percent of control [1, 11]: 117.99
- nectin-4 antibody binding compared to untreated control cells (in words) ([1]; 150 μg/mL peptide): increased binding of nectin-4 antibody
- Flow binding [1]: 118%
- Spheroid-48 [4]: 2

Compound: LVPSRSMNGQPLTC-NH2 (listed as Homo sapiens) [Peptide 16]
- N4 MFI [1, 9]: 12,161
- IgG MFI [1, 10]: 2,432
- N4 MFI/IgG MFI ([1]; Run One, Control 1 = 8.99): 5.00
- nectin-4 antibody binding, percent of control [1, 11]: 72.90
- Spheroid-24 [4]: 1
- Spheroid-48 [4]: 1

Compound: CLSEGQPPPSYNWT-NH2 (listed as Homo sapiens) [Peptide 21]
- N4 MFI [1, 7]: 34,351
- N4 MFI/IgG MFI ([1]; Run Two, Control 2 = 9.46): 8.61
- IgG MFI ([1]; Run Two, Control 2 = 5,233): 3,989
- nectin-4 antibody binding, percent of control [1, 8]: 68.60
- Spheroid-24 [4]: 1
- Spheroid-48 [4]: 2
